In publication PMC12655819 (Pharmaceuticals, 2025):
Read-outs that look alike come from different tables or passages of the source. Marks after values point to notes of the source that are not given here.

Test: Pharmacokinetics from total plasma levels (tMPA, tMPAG), LC-MS/MS
Assay type: in vivo, human
Conditions: total plasma level; for AUC(0–4) Normalized to Drug Dose: normalized to MMF dose; for Cmax: pediatric renal transplant recipients (n = 20) on MMF (CellCept), steady state, 0–4 h post-dose
Procedure: The AUC0–4, Tmax, and Cmax parameters were calculated using the R (version 4.5.1) package software (R Core Team, 2025), supported by RStudio (version 2025.05.1+513) from Posit PBC software (Boston, MA, USA). […] The vMPA and vMPAG capillary blood levels were corrected using formulas validated in our department (partially published by Kocur et al.) and expressed as estimated capillary plasma concentrations. […] Individual PK profiles for each patient included in the study are provided in the Supplementary File (Figures S4 and S5).
Briefly, 50 μL of plasma was diluted with 90 μL of deionized water, and 10 μL of IS (d3-MPA) was added. Next, 400 μL of the precipitation mixture (a 0.1 M aqueous zinc sulfate solution and acetonitrile, 50:50 (v/v)) was added. The sample was then shaken for 10 min at room temperature using an automatic rotary vortex (Ohaus, Parsippany, NJ, USA) and centrifuged for 10 min at 13,500× g at 4 °C thereafter. The supernatant was transferred into chromatographic vials and analyzed using LC-MS/MS. Sample processing was performed at the Department of Drug Chemistry, Pharmaceutical and Biomedical Analysis, Medical University of Warsaw, Poland.
From each patient (if they consented to all sampling types), four samples were collected simultaneously at all defined time points of the dynamic PK profile (0, 0.5, 1, 2, and 4 h after drug administration). Whole blood was collected using standard venipuncture by a phlebotomist into a K3-EDTA test tube (Sarstedt, Nümbrecht, Germany). Plasma for analytical determination was obtained by centrifuging a portion of the whole blood and stored at −40 °C until assay. At the same time, 10 µL capillary blood samples were collected from a finger prick using the Mitra™ device (VAMS samples were stored in light-protected aluminum zip bags with desiccant at room temperature).

[1] = pediatric renal transplant recipients (n = 20) on MMF, mean (range)

C0 concentration (0 h (pre-dose), n = 20, mean ± SD) [ng/mL]	C0.5 concentration (0.5 h post-dose, n = 20, mean ± SD) [ng/mL]	C1 concentration (1 h post-dose, n = 20, mean ± SD) [mg/L]	C2 concentration (2 h post-dose, n = 20, mean ± SD) [mg/L]	C4 concentration (4 h post-dose, n = 20, mean ± SD) [mg/L]	AUC(0–4) Normalized to Drug Dose (n = 20, mean (range))	Cmax (mean (range))	AUC(0–4) [1] [ng·h/mL]	Tmax [1]	Tmax (human, plasma, pediatric renal transplant recipients (n = 20) on MMF, mean (range), read-out: Tmax) [min]	concentration at 0 h (human, 0 h (pre-dose), n = 20, mean ± SD, read-out: C0 concentration) [ng/mL]	concentration at 0.5 h (human, 0.5 h post-dose, n = 20, mean ± SD, read-out: C0.5 concentration) [ng/mL]	concentration at 1 h (human, 1 h post-dose, n = 20, mean ± SD, read-out: C1 concentration) [ng/mL]	concentration at 2 h (human, 2 h post-dose, n = 20, mean ± SD, read-out: C2 concentration) [ng/mL]	concentration at 4 h (human, 4 h post-dose, n = 20, mean ± SD, read-out: C4 concentration) [ng/mL]	Cmax (human, mean (range), read-out: Cmax) [ng/mL]	AUC(0-t) (human, pediatric renal transplant recipients (n = 20) on MMF, mean (range)) [ng·h/mL]	Tmax (pediatric renal transplant recipients (n = 20) on MMF, mean (range), listed as tMPA)	Structure (SMILES)
23805 ± 12320	37800 ± 17081	48.647 ± 22.134	34.258 ± 13.977	27.075 ± 12.413	384.94 (106.81–1050.08) ^d mg × h/mL × g	49.54 (19.24–109.28) mg/L	144000	1.33 (0.50–2.00) h										COc1c(C)c2c(c(O[C@@H]3O[C@H](C(=O)O)[C@@H](O)[C@H](O)[C@H]3O)c1C/C=C(\C)CCC(=O)O)C(=O)OC2 [MPAG, mycophenolic acid glucuronide]
					83.67 (22.44–447.22) ^d mg × h/mL × g				30 to 60	2150 ± 1620	10700 ± 9560	11400 ± 6810	4680 ± 3410	2230 ± 2390	14400	23800	0.78 (0.50–1.00) h	COc1c(C)c2c(c(O)c1C/C=C(\C)CCC(=O)O)C(=O)OC2 [MPA, Mycophenolic acid]
